Key:
[1] = target: T1, Tyrosinase (Agaricus bisporus) (UniProt O42713); assay: Inhibition of mushroom tyrosinase using L-tyrosine as substrate at >12.5 uM measured every 1 min for 20 mins by spectrophotometric assay relative to control
T1 sequence (whole entry): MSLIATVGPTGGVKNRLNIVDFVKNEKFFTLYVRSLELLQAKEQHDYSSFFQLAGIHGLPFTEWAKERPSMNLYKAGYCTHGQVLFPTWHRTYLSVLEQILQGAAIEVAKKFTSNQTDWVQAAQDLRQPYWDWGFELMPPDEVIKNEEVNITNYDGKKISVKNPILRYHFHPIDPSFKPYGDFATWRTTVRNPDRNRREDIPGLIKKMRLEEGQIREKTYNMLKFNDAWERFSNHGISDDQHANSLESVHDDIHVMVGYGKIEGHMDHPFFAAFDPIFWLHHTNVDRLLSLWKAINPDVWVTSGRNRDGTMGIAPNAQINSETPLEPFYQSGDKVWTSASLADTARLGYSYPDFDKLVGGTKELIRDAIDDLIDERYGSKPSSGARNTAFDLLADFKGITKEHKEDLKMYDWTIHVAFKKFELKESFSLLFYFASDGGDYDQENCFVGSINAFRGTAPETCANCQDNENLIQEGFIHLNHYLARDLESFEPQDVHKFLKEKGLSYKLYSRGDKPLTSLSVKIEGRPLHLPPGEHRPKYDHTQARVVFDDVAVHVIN

Tyrosinase = target: T2, Tyrosinase (Agaricus bisporus, UniProt O42713); assay: Inhibition of mushroom tyrosinase using L-tyrosine as substrate measured every 1 min for 20 mins by spectrophotometric assay
T2 sequence (O42713 whole entry): T1 sequence (whole entry)

inhibition [1] [%] | IC50 (Tyrosinase) [µM] | Compound
< 100 | 25.8 | C=C(C)[C@@H]1CC[C@]2(C(=O)O)CC[C@]3(C)[C@H](CC[C@@H]4[C@@]5(C)CC[C@@H](O)[C@@](C)(C=O)[C@@H]5CC[C@]43C)[C@@H]12
< 100 |  | C[C@@]12CCC[C@@](C)(C(=O)O[C@@H]3O[C@H](CO)[C@@H](O)[C@H](O)[C@H]3O)[C@H]1CC[C@@]13C[C@H](CC[C@H]12)[C@@](O)(CO)C3
< 100 |  | C=C(CO)[C@@H]1CC[C@]2(C(=O)O)CC[C@]3(C)[C@H](C[C@@H](O)[C@@H]4[C@@]5(C)CC[C@@H](O)[C@@](C)(C(=O)O)[C@@H]5CC[C@]43C)[C@@H]12
< 100 |  | C[C@H](C=O)[C@@H]1CC[C@]2(C(=O)O)CC[C@]3(C)[C@H](CC[C@@H]4[C@@]5(C)CC[C@@H](O)[C@@](C)(C(=O)O)[C@@H]5CC[C@]43C)[C@@H]12
< 100 |  | C=C(C)[C@@H]1CC[C@]2(C(=O)O)CC[C@]3(C)[C@H](C[C@@H](O)[C@@H]4[C@@]5(C)CC[C@@H](O)C(C)(C=O)[C@@H]5CC[C@]43C)[C@@H]12 (some centres not stated)
< 100 |  | C=C(CO)[C@@H]1CC[C@]2(C(=O)O)CC[C@]3(C)[C@H](C[C@@H](O)[C@@H]4[C@@]5(C)CC[C@@H](O)C(C)(C)[C@@H]5CC[C@]43C)[C@@H]12
< 100 |  | COC(OC)[C@H](C)[C@@H]1CC[C@]2(C(=O)O)CC[C@]3(C)[C@H](CC[C@@H]4[C@@]5(C)CC[C@@H](O)[C@@](C)(C(=O)O)[C@@H]5CC[C@]43C)[C@@H]12
< 100 |  | C[C@H](CO)[C@@H]1CC[C@]2(C(=O)O)CC[C@]3(C)[C@H](CC[C@@H]4[C@@]5(C)CC[C@@H](O)[C@@](C)(C=O)[C@@H]5C[C@H](O)[C@]43C)[C@@H]12
< 100 | 63.5 | C=C(CO)[C@@H]1CC[C@]2(C(=O)O)CC[C@]3(C)[C@H](C[C@@H](O)[C@@H]4[C@@]5(C)CC[C@@H](O)[C@@](C)(C=O)[C@@H]5CC[C@]43C)[C@@H]12
< 100 | 8.61 | C[C@]12CC[C@@H](O)[C@@](C)(C(=O)O)[C@@H]1CC[C@]1(C)[C@@H]2CC[C@@H]2[C@H]3[C@H]([C@](C)(O)CO)CC[C@]3(C(=O)O)CC[C@]21C
< 100 | 16.9 | CC1=CC[C@@H](C(C)(C)O[C@@H]2O[C@H](CO)[C@@H](O)[C@H](O)[C@H]2O)CC1
< 100 |  | CC(=O)[C@@H]1CC[C@]2(C(=O)O)CC[C@]3(C)[C@H](C[C@@H](O)[C@@H]4[C@@]5(C)CC[C@@H](O)C(C)(C(=O)O)[C@@H]5CC[C@]43C)[C@@H]12 (some centres not stated)

Compound | inhibition [1] [%] | IC50 (Tyrosinase) [µM]
C=C(C)[C@@H]1CC[C@]2(C(=O)O)CC[C@]3(C)[C@H](CC[C@@H]4[C@@]5(C)CC[C@@H](O)C(C)(C(=O)O)[C@@H]5CC[C@]43C)[C@@H]12 (some centres not stated) | < 100 | 
